According to PubChem BioAssay AID788 (SRMLSC, 2007):
The source made the active and inactive calls. The rule behind the calls is not given here.

Experiments:
[1] = tested on: S. cerevisiae vps1Δ apl2Δ growth inhibition, dose response; assay: growth inhibition of vps1Δ apl2Δ yeast, dose response, post-Golgi transport modulator project, S. cerevisiae, background strain comparison (AID 788)
[2] = tested on: S. cerevisiae wild-type background strain growth inhibition; assay: as above; conditions: S. cerevisiae vps1Δ apl2Δ growth inhibition, dose response; measured here: wild-type background strain growth

Row | Compound | IC50 [1] | IC50 [2] [µM]
1 | CCCCCOc1ccc(Cl)cc1CN1CCOCC1 | 20.6 µM | > 10
2 | CCOC(=O)Cc1c(C)c2ccc(N(CC)CC)cc2oc1=O | > 10 µM (inactive) | > 10
3 | O=C(Cn1ncc2c3ccccc3n(Cc3ccccc3F)c2c1=O)N1CCC2(CC1)OCCO2 | > 10 µM (inactive) | > 10
4 | Cc1sc(NC(=O)c2ccco2)c(C(c2cccnc2)N2CCC(C)CC2)c1C (configuration not stated) | 9.99 µM (inactive) | 5.77
5 | CCOC(=O)c1cc2c(ccn2C)n1CC(=O)N1CCN(c2ccccc2OC)CC1 | > 10 µM (inactive) | > 10
6 | Cc1ccc(C)c(NS(=O)(=O)c2cc(C(=O)N3CCc4ccccc4C3)ccc2Cl)c1 | 8.09 µM (inactive) | 6.88
7 | COc1ccc(-c2cc(N)n(S(=O)(=O)c3c(F)c(F)c(F)c(F)c3F)n2)cc1OC | 2.5 µM (inactive) | 1.08
8 | CC1CCCCN1CCNC(=O)Cn1nc(-c2ccccc2)ccc1=O (configuration not stated) | > 10 µM (inactive) | > 10
9 | Cn1c2ccc(Cl)cc2c2nc3ccccc3nc21 | > 10 µM (inactive) | > 10
10 | Cc1ccc(SC(=O)COc2ccc(C)c(C)c2)cc1 | > 10 µM (inactive) | > 10
11 | COc1ccccc1N1CCN(C2CCN(C(=O)c3cc(OC)c(OC)c(OC)c3)CC2)CC1 | > 10 µM (inactive) | > 10
12 | COc1ccc(/C=C2\SC(=S)N(NC(=O)c3csc4c3CCCC4)C2=O)cc1 | > 10 µM (inactive) | > 10
13 | Cc1cc2ncn(CC(O)COc3cccc(C(=O)O)c3)c2cc1C (configuration not stated) | > 10 µM (inactive) | > 10
14 | CCOC(=O)C(C)Oc1ccc2c(C)cc(=O)oc2c1C(C)=O (configuration not stated) | > 10 µM (inactive) | > 10
15 | O=C(Nc1nnc(C2CC2)o1)c1ccc(S(=O)(=O)N2CCCc3ccccc32)cc1 | > 10 µM (inactive) | 3.17
16 | O=S(=O)(NCC(c1cccnc1)N1CCN(c2ccccc2)CC1)c1cccs1 (configuration not stated) | 23 µM | > 10
17 | O=C(OCn1nnc2ccccc2c1=O)c1cn(-c2ccccc2)nc1-c1cccnc1 | > 10 µM (inactive) | > 10
18 | CCN1C(=O)c2ccc(C(=O)NCc3ccccc3)cc2C1=O | > 10 µM (inactive) | > 10
19 | O=C(NCc1ccc2c(c1)OCO2)C1CCCN1C(=O)Nc1ccccc1 (configuration not stated) | > 10 µM (inactive) | > 10
20 | O=C(COc1ccc(Cl)cc1)Nc1ccc(N2CCN(C(=O)c3ccco3)CC2)cc1 | > 10 µM (inactive) | > 10
21 | O=C(Nc1cc(C(F)(F)F)ccc1-n1cncn1)c1ccc(-c2ccccc2)cc1 | > 10 µM (inactive) | > 10

Row | Compound | IC50 [1] | IC50 [2] [µM]
22 | CCc1ccc(C(=O)/C=C/c2ccc([N+](=O)[O-])o2)cc1 | 23.1 µM (inactive) | 20.7
23 | CCOc1ccc(NC(=O)C/C(N)=N/O)cc1 | > 10 µM (inactive) | > 10
24 | CCOC(=O)N1CCN(c2ccc(S(=O)(=O)N(Cc3ccccc3)Cc3ccccc3)cn2)CC1 | > 10 µM (inactive) | > 10
25 | CC(=O)c1cnc2nc(C)nn2c1C | > 10 µM (inactive) | > 10
26 | CCC(C)(C)n1nnnc1C(c1cc2cc3c(cc2[nH]c1=O)OCO3)N1CCN(C)CC1 (configuration not stated) | > 10 µM (inactive) | > 10
27 | c1ccc(COc2ccc(CN3CCN(c4ccccn4)CC3)cc2)cc1 | > 10 µM (inactive) | > 10
28 | COc1cc2[nH]c(=S)n(CCCN3CCOCC3)c(=O)c2cc1OC | > 10 µM (inactive) | > 10
29 | COc1ccc(NC(=O)N(C2CCCCC2)C(C)c2cccnc2)c(OC)c1 (configuration not stated) | 9.51 µM | 16.7
30 | O=C1OCC2=C1C(c1ccc(F)cc1)Sc1ccccc1N2 (configuration not stated) | 23.9 µM | > 10
31 | OC(c1ccc(Cl)cc1Cl)C(Cc1cccnc1)n1cncn1 (configuration not stated) | > 10 µM (inactive) | > 10
32 | O=C(Nc1nnc(-c2ccc3c(c2)CCCC3)o1)c1ccc(Cl)cc1Cl | 6.32 µM (inactive) | 3.46
33 | NC(=O)c1c(NC(=O)CN2C(=O)CCC2=O)sc2c1CCCCC2 | > 10 µM (inactive) | > 10
34 | ON=Cc1cccn1-c1ccccc1 | > 10 µM (inactive) | > 10
35 | COCCNc1cc(C)nc2c3c(C)cc(C)nc3nn12 | > 10 µM (inactive) | > 10
36 | O=C(O)c1cc(-c2ccc(/C=N/Nc3ccc(Cl)cc3)o2)ccc1Cl | 10.9 µM | 16.4
37 | N[C@@H](Cc1c[nH]c2ccccc12)c1nnc(SCc2ccc(Cl)cc2)o1 | 24.8 µM (inactive) | 20.4
38 | CCc1ccc(N(C(=O)c2csnn2)C(C(=O)NC(C)(C)C)c2ccncc2)cc1 (configuration not stated) | > 10 µM (inactive) | > 10
39 | Cc1cc([N+](=O)[O-])c(-c2ccc(/C=N/n3cnnc3)o2)cc1Cl | 0.39 µM (inactive) | 0.134
40 | O=C(NCC(=O)N(c1cccnc1)C(C(=O)NCc1ccco1)c1ccccc1)c1ccco1 (configuration not stated) | > 10 µM (inactive) | > 10
41 | CCC(C)c1ccc(OCCCCN2CCOCC2)cc1 (configuration not stated) | 4.71 µM | > 10
42 | O=C(O)c1ccc(N2CCCCC2)cc1 | > 10 µM (inactive) | > 10

Row | Compound | IC50 [1] | IC50 [2] [µM]
43 | COc1ccc(C2CC(=O)C3=C(C2)NC(C)=C(C(=O)Nc2ccccc2C)C3c2coc3ccc(C)cc3c2=O)cc1OC (configuration not stated) | > 10 µM (inactive) | > 10
44 | Cc1ccc(N2CCN(S(=O)(=O)N3CCCCCC3)CC2)cc1Cl | > 10 µM (inactive) | > 10
45 | NC(=O)c1ccsc1NC(=O)c1nc(-c2ccccc2)n(-c2ccccc2)n1 | > 10 µM (inactive) | > 10
46 | Clc1ccc(Cn2nnc(-c3ccc(CN4CCOCC4)cc3)n2)cc1 | 1.33 µM | > 10
47 | Cc1nc(NC(=O)c2ccccc2)sc1-c1csc(NCc2ccccc2)n1 | 3.54 µM | > 10
48 | CCN(CC)CCCN(Cc1cc2cc3c(cc2[nH]c1=O)OCCO3)C(=O)Nc1ccc(F)cc1 | > 10 µM (inactive) | > 10
49 | Cc1cccnc1Nc1nc(-c2ccccn2)cs1 | 22.7 µM | > 10
50 | Cc1nnc(-c2cccc(Br)c2)c2cn(-c3ccccc3Cl)nc12 | 2.73 µM | 25.9
51 | COc1ccc(Cl)cc1NC(=O)C(C)N1CCN(C/C=C/c2ccccc2)CC1 (configuration not stated) | 9.01 µM | 15
52 | COc1ccc(Nc2nc(N)nc(CSc3nnc(N)s3)n2)cc1 | > 10 µM (inactive) | > 10
53 | O=S(=O)(c1cnccc1N1CCN(/N=C/c2ccc(Br)cc2)CC1)N1CCCCC1 | > 10 µM (inactive) | > 10
54 | COc1ccc(N2CCN(c3oc(-c4ccco4)nc3C#N)CC2)cc1 | > 10 µM (inactive) | > 10
55 | COc1cc(CN2CCN(c3ccc(C)cc3)CC2)cc([N+](=O)[O-])c1O | > 10 µM (inactive) | > 10
56 | O=[N+]([O-])c1ccc(N2CCN(S(=O)(=O)c3ccc(Cl)cc3)CC2)cc1NCc1cccnc1 | > 10 µM (inactive) | > 10
57 | CCCC(=O)Nc1ccc(Cl)c(NC(=O)c2cccnc2Cl)c1 | > 10 µM (inactive) | > 10
58 | O=Cc1cc2ccccc2nc1SCc1ccc(Cl)cc1 | > 10 µM (inactive) | > 10
59 | N=c1nc(N)nc2n1NC(c1ccc(F)cc1)=CS2 | > 10 µM (inactive) | > 10
60 | FC(F)(F)COc1nc(N2CCCCC2)nc(N2CCNCC2)n1 | > 10 µM (inactive) | > 10
61 | COCCCNc1ccnc2c(Cl)cccc12 | > 10 µM (inactive) | > 10
62 | CCC(OC(=O)C(NC(=O)c1ccccc1)c1ccccc1)C(=O)Nc1cc(C)on1 (configuration not stated) | > 10 µM (inactive) | > 10
63 | CC(=O)c1ccc(N2CCN(C(=O)c3ccc(Br)cc3)CC2)c(F)c1 | 0.628 µM | 6.58

Row | Compound | IC50 [1] | IC50 [2] [µM]
64 | Cc1ccc(-n2cc3c(-c4cccc(Br)c4)nnc(C)c3n2)cc1 | 1.94 µM | 13.5
65 | COc1ccc(C(=O)Nc2ccc(Cl)cc2C(=O)N2CCCC(C)C2)cc1 (configuration not stated) | > 10 µM (inactive) | > 10
66 | Cc1cccc(OCC(=O)O/N=C(\N)Cc2ccc(Cl)cc2)c1 | > 10 µM (inactive) | 10.4
67 | CCCCCCCCNc1ncnc2ccccc12 | > 10 µM (inactive) | 14.8
68 | CCCCC1(CCCC)C(=O)NC(=Nc2cccc(C)c2)NC1=O | > 10 µM (inactive) | > 10
69 | C/C(=N\N=C(/N)SC1CC(=O)N(c2ccc(Cl)c(Cl)c2)C1=O)c1cccs1 (configuration not stated) | 5.05 µM | 5.98
70 | Cc1ccc(-c2csc3nnc(SCC(=O)Nc4cccc(C)n4)n23)cc1 | > 10 µM (inactive) | > 10
71 | O=C1OCC(CO)(CO)N=C1NNc1ccc(Cl)c(Cl)c1 | 2.85 µM | 3.35
72 | CC(NC(=O)CSc1nc2c(cc1C#N)CN(C)CC2)c1ccccc1 (configuration not stated) | > 10 µM (inactive) | > 10
73 | Cc1ccc(SC(C)C(=O)Nc2ncn[nH]2)cc1 (configuration not stated) | > 10 µM (inactive) | > 10
74 | CN1/C(=C/C2CC(=O)NC2=O)C(C)(C)c2ccccc21 (configuration not stated) | > 10 µM (inactive) | > 10
75 | OC(Cn1ccnc1)c1ccc(Cl)cc1Cl (configuration not stated) | > 10 µM (inactive) | > 10
76 | O=C(Cc1cccs1)Nc1nc2c(s1)CCCC2 | > 10 µM (inactive) | > 10
77 | CCc1cc2c(=O)c(Oc3ccccc3F)c(C)oc2c(CN(C)C)c1O | > 10 µM (inactive) | > 10
78 | Cc1ccc(C2(C(F)(F)F)N=C3Sc4cc(C)cc(C)c4N3C(=O)N2)cc1 (configuration not stated) | 1.5 µM (inactive) | 1.08
79 | O=C(C1COc2ccccc2O1)N1CCN(Cc2ccc3c(c2)OCO3)CC1 (configuration not stated) | 10.4 µM | > 10
80 | CN1CCN(CCCNC(=O)Cn2nc(-c3ccccc3)ccc2=O)CC1 | > 10 µM (inactive) | > 10
81 | CCOC(=O)C1=C(CSc2nc(-c3ccccc3)ccc2C#N)OC(N)=C(C#N)C1c1cccnc1 (configuration not stated) | > 10 µM (inactive) | > 10
